Format in all cases: binding
The target of one assay is T1, α-chymotrypsin (Bos taurus, UniProt P00766).
T1 construct: from bovine pancreas, Type II
In words: […] NMR chemical shift titration; waterLOGSY titration.

Assay [1] concerns the target T2, human serum albumin (HSA) (Homo sapiens, UniProt P02768).
T2 construct: gene ALB
In words: waterLOGSY NMR titration ([…] HSA, […] s mixing time). The settings on record: read-out: KD^obs/μM / 25 μM HSA.

Assay [2] deals with T3, bovine serum albumin (BSA) (Bos taurus, UniProt P02769).
T3 construct: gene ALB
In words: waterLOGSY NMR titration ([…] BSA).

SMILES strings stand for the structures.

T2 sequence (P02768 25-609): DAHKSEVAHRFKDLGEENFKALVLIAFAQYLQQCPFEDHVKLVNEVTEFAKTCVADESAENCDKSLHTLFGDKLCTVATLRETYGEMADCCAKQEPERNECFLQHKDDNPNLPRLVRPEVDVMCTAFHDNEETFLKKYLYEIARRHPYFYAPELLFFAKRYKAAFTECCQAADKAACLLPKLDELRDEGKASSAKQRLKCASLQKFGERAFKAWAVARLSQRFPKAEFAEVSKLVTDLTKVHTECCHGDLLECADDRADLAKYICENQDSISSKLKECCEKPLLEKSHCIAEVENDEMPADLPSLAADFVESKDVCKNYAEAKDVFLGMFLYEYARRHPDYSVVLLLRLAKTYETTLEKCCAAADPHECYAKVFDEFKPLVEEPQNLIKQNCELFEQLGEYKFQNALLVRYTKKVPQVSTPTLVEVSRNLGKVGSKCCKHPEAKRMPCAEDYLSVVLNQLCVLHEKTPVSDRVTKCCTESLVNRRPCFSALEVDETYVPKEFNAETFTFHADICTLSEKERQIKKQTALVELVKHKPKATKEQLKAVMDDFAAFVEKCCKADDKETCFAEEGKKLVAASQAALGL
T3 sequence (P02769 25-607): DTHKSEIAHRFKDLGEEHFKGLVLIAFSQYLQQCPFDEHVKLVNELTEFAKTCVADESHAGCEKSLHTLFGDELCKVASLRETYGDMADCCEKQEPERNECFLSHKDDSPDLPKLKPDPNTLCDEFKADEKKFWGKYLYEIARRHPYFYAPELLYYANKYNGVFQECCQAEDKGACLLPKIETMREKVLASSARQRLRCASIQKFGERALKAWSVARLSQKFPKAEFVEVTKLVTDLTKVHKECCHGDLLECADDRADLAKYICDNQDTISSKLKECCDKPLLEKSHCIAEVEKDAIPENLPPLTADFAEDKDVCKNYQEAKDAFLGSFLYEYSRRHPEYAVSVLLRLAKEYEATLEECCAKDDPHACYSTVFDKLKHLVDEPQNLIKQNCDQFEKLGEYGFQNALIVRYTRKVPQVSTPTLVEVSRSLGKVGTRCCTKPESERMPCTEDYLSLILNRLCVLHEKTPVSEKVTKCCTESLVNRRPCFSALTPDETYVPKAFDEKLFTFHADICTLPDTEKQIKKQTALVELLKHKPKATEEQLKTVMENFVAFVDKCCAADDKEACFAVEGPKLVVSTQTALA

For the molecule `OB(O)c1cccc(F)c1` [3-Fluorophenylboronic acid], the Kd on α-chymotrypsin came to 630 µM.
For the molecule `N[C@@H](Cc1c[nH]c2ccccc12)C(=O)O` [L-tryptophan], the Kd in assay [1] was 185 ± 50 µM; in assay [2] it was around 120 µM.
